# Data as given in US10765114B2, “4-amino-6-(pyridyl and 2-substitutedphenyl)-picolinates and 6-amino-2-(pyridyl and 2-substitutedphenyl)-pyrimidine-4-carboxylates and their use as herbicides” (Dow AgroSciences LLC, priority 2013, dated 2020).
# How the values were obtained:
# Assay in all cases: Post-Emergent Test III (Wheat and Barley)
# [1] = system: VERPE (Persian speedwell); type: in vivo, Veronica persica; conditions: for Visual Growth Reduction (%) 21 Days After Application, VERPE: postemergence
# Procedure: (§1) Seeds of the desired test plant species were planted in Sun Gro MetroMix® 306 planting mixture, which typically has a pH of 6.0 to 6.8 and an organic matter content of about 30 percent, in plastic pots with a surface area of 103.2 square centimeters (cm^2). When required to ensure good germination and healthy plants, a fungicide treatment and/or other chemical or physical treatment was applied. The plants were grown for 7-36 days in a greenhouse with an approximate 14 h photoperiod which was maintained at about 18° C. during the day and 17° C. during the night. Nutrients and water were added on a regular basis and supplemental lighting was provided with overhead metal halide 1000-Watt lamps as necessary. The plants were employed for testing when they reached the second or third true leaf stage.
# (§2) A weighed amount, determined by the highest rate to be tested, of each test compound was placed in a 25 mL glass vial and was dissolved in 4 mL of a 97:3 v/v mixture of acetone and DMSO to obtain concentrated stock solutions. […] The concentrated stock solutions obtained were diluted with 20 mL of an aqueous mixture containing acetone, water, isopropyl alcohol, DMSO, Agri-Dex crop oil concentrate, and X-77 surfactant in a 48:39:10:1.5:1.5:0.02 v/v ratio to obtain spray solutions containing the highest application rates. Additional application rates were obtained by serial dilution of 12 mL of the high rate solution into a solution containing 2 mL of 97:3 v/v mixture of acetone and DMSO and 10 mL of an aqueous mixture containing acetone, water, isopropyl alcohol, DMSO, Agri-Dex crop oil concentrate, and X-77 surfactant in a 48:39:10:1.5:1.5:0.02 v/v ratio to obtain ½×, ¼×, ⅛× and 1/16× rates of the high rate. Compound requirements are based upon a 12 mL application volume at a rate of 187 liters per hectare (L/ha). Formulated compounds were applied to the plant material with an overhead Mandel track sprayer equipped with 8002E nozzles calibrated to deliver 187 L/ha over an application area of 0.503 square meters at a spray height of 18 inches (43 cm) above the average plant canopy height. Control plants were sprayed in the same manner with the solvent blank.
# (§3) The treated plants and control plants were placed in a greenhouse as described above and watered by subirrigation to prevent wash-off of the test compounds. After 21 dAYS, the condition of the test plants as compared with that of the untreated plants was determined visually and scored on a scale of 0 to 100 percent where 0 corresponds to no injury and 100 corresponds to complete kill and presented as indicated in Table A.
# (§4) By applying the well-accepted probit analysis as described by J. Berkson in Journal of the American Statistical Society, 48, 565 (1953) and by D. Finney in “Probit Analysis” Cambridge University Press (1952), herbicidal injury of a specific compound at various rates can be used to calculate GR10, GR20, GR50, GR80 and GR90 values, which are defined as growth reduction factors that correspond to the effective dose of herbicide required to provide plant growth reduction (GR) of 10 percent, 20 percent, 50 percent, 80 percent and 90 percent, respectively. Probit analysis was applied to data collected from multiple dose rates of individual compounds utilizing the procedures explained in the following examples. The analysis of those dose rates is captured in the following tables.
# KCHSC (kochia) = type: in vivo, Kochia scoparia
# Procedure, shortened: (§5)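 Seedlings are raised in a greenhouse at about 18/17 °C with a 14 h photoperiod until the second or third true leaf. They are then sprayed overhead at 187 L/ha over a range of rates down to 1/16× the highest. After 21 days, injury is scored visually, 0–100%.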
# POLCO (wild buckwheat) = type: in vivo, Polygonum convolvulus; conditions: for Visual Growth Reduction (%) 21 Days After Application, POLCO: postemergence
# Procedure: as §1, §2, §3, §4
# BRSSS = type: in vivo; conditions: for Visual Growth Reduction (%) 21 Days After Application, BRSSS: postemergence
# Procedure, shortened: as §5
# HORSS = type: in vivo
# Procedure, shortened: as §5
# TRZSS = type: in vivo
# Procedure, shortened: as §5
# APESV (windgrass) = type: in vivo, Apera spica-venti
# Procedure, shortened: as §5
# PAPRH (common poppy) = type: in vivo, Papaver rhoeas; conditions: for Visual Growth Reduction (%) 21 Days After Application, PAPRH: postemergence
# Procedure: as §1, §2, §3, §4
# [2] = effective dose for growth reduction of 50 percent, probit analysis
# [3] = effective dose for growth reduction of 80 percent, probit analysis
# [4] = effective dose for growth reduction of 90 percent, probit analysis
# [5] = effective dose for growth reduction of 10 percent, probit analysis
# [6] = effective dose for growth reduction of 20 percent, probit analysis
smiles,measurement,setting,value
"Nc1c(F)c(-c2ccc(C(F)(F)F)nc2)nc(C(=O)O)c1Cl [Compound 46, 4-amino-5-chloro-3-fluoro-6′-(trifluoromethyl)-[2,3′-bipyridine]-6-carboxylic acid]","Visual Growth Reduction (%) 21 Days After Application, VERPE",[1]; 35 g ai/ha,A (95-100)
same,"Visual Growth Reduction (%) 21 Days After Application, VERPE",[1]; 70 g ai/ha,A (95-100)
same,"Visual Growth Reduction (%) 21 Days After Application, VERPE",[1]; 140 g ai/ha,A (95-100)
same,"GR50, VERPE",[1]; [2],1 g ai/ha
same,"GR80, VERPE",[1]; [3],2 g ai/ha
same,"GR90, VERPE",[1]; [4],8 g ai/ha
same,pest or weed control at 35 g/ha,"KCHSC (kochia); Bassia scoparia, post-emergence, 504 h, 35 g ai/ha, postemergence, read-out: Visual Growth Reduction (%) 21 Days After Application, KCHSC",60 to 74%
same,pest or weed control at 70 g/ha,"KCHSC (kochia); Bassia scoparia, post-emergence, 504 h, 70 g ai/ha, postemergence, read-out: Visual Growth Reduction (%) 21 Days After Application, KCHSC",60 to 74%
same,pest or weed control at 140 g/ha,"KCHSC (kochia); Bassia scoparia, post-emergence, 504 h, 140 g ai/ha, postemergence, read-out: Visual Growth Reduction (%) 21 Days After Application, KCHSC",85 to 94%
same,"GR50, KCHSC",KCHSC (kochia); [2],29 g ai/ha
same,"GR80, KCHSC",KCHSC (kochia); [3],104 g ai/ha
same,"GR90, KCHSC",KCHSC (kochia); [4],>140 g ai/ha
same,"Visual Growth Reduction (%) 21 Days After Application, POLCO",POLCO (wild buckwheat); 35 g ai/ha,E (45-59)
same,"Visual Growth Reduction (%) 21 Days After Application, POLCO",POLCO (wild buckwheat); 70 g ai/ha,D (60-74)
same,"Visual Growth Reduction (%) 21 Days After Application, POLCO",POLCO (wild buckwheat); 140 g ai/ha,D (60-74)
same,"GR50, POLCO",POLCO (wild buckwheat); [2],27 g ai/ha
same,"GR80, POLCO",POLCO (wild buckwheat); [3],>140 g ai/ha
same,"GR90, POLCO",POLCO (wild buckwheat); [4],>140 g ai/ha
same,"Visual Growth Reduction (%) 21 Days After Application, BRSSS",BRSSS; 35 g ai/ha,D (60-74)
same,"Visual Growth Reduction (%) 21 Days After Application, BRSSS",BRSSS; 70 g ai/ha,D (60-74)
same,"Visual Growth Reduction (%) 21 Days After Application, BRSSS",BRSSS; 140 g ai/ha,C (75-84)
same,"GR50, BRSSS",BRSSS; [2],11 g ai/ha
same,"GR80, BRSSS",BRSSS; [3],>140 g ai/ha
same,"GR90, BRSSS",BRSSS; [4],>140 g ai/ha
same,pest or weed control at 35 g/ha,"HORSS; Hordeum vulgare, post-emergence, 504 h, 35 g ai/ha, postemergence, read-out: Visual Growth Reduction (%) 21 Days After Application, HORSS",60 to 74%
same,pest or weed control at 70 g/ha,"HORSS; Hordeum vulgare, post-emergence, 504 h, 70 g ai/ha, postemergence, read-out: Visual Growth Reduction (%) 21 Days After Application, HORSS",75 to 84%
same,pest or weed control at 140 g/ha,"HORSS; Hordeum vulgare, post-emergence, 504 h, 140 g ai/ha, postemergence, read-out: Visual Growth Reduction (%) 21 Days After Application, HORSS",85 to 94%
same,"GR10, HORSS",HORSS; [5],1 g ai/ha
same,"GR20, HORSS",HORSS; [6],3 g ai/ha
same,pest or weed control at 35 g/ha,"TRZSS; Triticum aestivum, post-emergence, 504 h, 35 g ai/ha, postemergence, read-out: Visual Growth Reduction (%) 21 Days After Application, TRZSS",75 to 84%
same,pest or weed control at 70 g/ha,"TRZSS; Triticum aestivum, post-emergence, 504 h, 70 g ai/ha, postemergence, read-out: Visual Growth Reduction (%) 21 Days After Application, TRZSS",75 to 84%
same,pest or weed control at 140 g/ha,"TRZSS; Triticum aestivum, post-emergence, 504 h, 140 g ai/ha, postemergence, read-out: Visual Growth Reduction (%) 21 Days After Application, TRZSS",85 to 94%
same,"GR10, TRZSS",TRZSS; [5],1 g ai/ha
same,"GR20, TRZSS",TRZSS; [6],1 g ai/ha
same,pest or weed control at 35 g/ha,"APESV (windgrass); Apera spica-venti, post-emergence, 504 h, 35 g ai/ha, postemergence, read-out: Visual Growth Reduction (%) 21 Days After Application, APESV",60 to 74%
same,pest or weed control at 70 g/ha,"APESV (windgrass); Apera spica-venti, post-emergence, 504 h, 70 g ai/ha, postemergence, read-out: Visual Growth Reduction (%) 21 Days After Application, APESV",75 to 84%
same,pest or weed control at 140 g/ha,"APESV (windgrass); Apera spica-venti, post-emergence, 504 h, 140 g ai/ha, postemergence, read-out: Visual Growth Reduction (%) 21 Days After Application, APESV",85 to 94%
same,"GR50, APESV",APESV (windgrass); [2],37 g ai/ha
same,"GR80, APESV",APESV (windgrass); [3],78 g ai/ha
same,"GR90, APESV",APESV (windgrass); [4],115 g ai/ha
same,"Visual Growth Reduction (%) 21 Days After Application, PAPRH",PAPRH (common poppy); 35 g ai/ha,A (95-100)
same,"Visual Growth Reduction (%) 21 Days After Application, PAPRH",PAPRH (common poppy); 70 g ai/ha,A (95-100)
same,"Visual Growth Reduction (%) 21 Days After Application, PAPRH",PAPRH (common poppy); 140 g ai/ha,A (95-100)
same,"GR50, PAPRH",PAPRH (common poppy); [2],2 g ai/ha
same,"GR80, PAPRH",PAPRH (common poppy); [3],8 g ai/ha
same,"GR90, PAPRH",PAPRH (common poppy); [4],16 g ai/ha
